Key:
Format in all cases: in vivo
[1] = system: mice; experiment: Object-location memory paradigm; conditions: recall phase, versus DMSO injected
Protocol: FIG. 29 depicts a graph showing the time spent interacting with an individual object relative to the total time spent interacting with all objects.
To assess hippocampus-dependent spatial memory, an object-location memory paradigm is used. Animals explore three different objects during training, and long-term memory is tested by re-exposure 24 hours later with one object moved to a different location. In training, control and inhibitor treated mice show no difference in exploration. During memory retrieval, control mice show increased exploration of the object that had been moved. By contrast, mice treated with an ACSS2 inhibitor are impaired in spatial object memory and display a lower discrimination index.
The conditions were blind as it relates to the injection (DMSO versus ADG-205c) and the locations of objects (those in the same location versus novel location). An online stopwatch interface was used that allowed use 3 simultaneous timer, one for each object. Each timer was stopped individually as the mouse interacted with a given object. […] Some mice remained stationary for substantial amounts of time relative to the others—some appearing apprehensive huddled in a corner, some spending time grooming.

[2] = system: mice; experiment: Fear reconsolidation behavioral study; conditions: 2 mg/kg immediately before and 30 min after each of 4 dosed cue-recall sessions, versus DMSO
Protocol: 3 CS-US pairings were performed: tone is 30 seconds long co-terminating with 2 second, 1 mA shock. No drug or vehicle was administered.
Subsequent to the acquisition, and following the schedule provided, above, recall and reconsolidation sessions ensued. The cage was altered in context (floor board, walls, vanilla scent). The same paradigm as acquisition was used for reconsolidation and recall exposures but no shock was delivered. The following procedure was followed: (1) 2 min habituation to box; (2) 30 sec tones; (3) 1 min it is.
Injections of ADG-205c or DMSO at dosage of 2 mg/kg are administered at the following time points: Immediately before reconsolidation/recall; and then 30 minutes following reconsolidation/recall.

[3] = system: Male Sprague-Dawley rat; experiment: Fear conditioning in rats (cued memory test); conditions: IP, dosed 5 min before and 30 min after acquisition, versus vehicle
Protocol: A. Fear Conditioning in Rats
Species: Rat; Strain: Male Sprague-Dawley (CD-SD strain 001; Charles River Labs); Age or weight: 7 to 9 weeks, approximately 250 grams
Formulation(s): 5% DMSO in 0.5% methylcellulose
Dose Levels: 4 mg/kg total; distributed into 2 injections of 2 mg/kg
Dose Frequency: Twice; once prior to shock cycle and once right after last shock • 1st Injection—5 minutes before being placed into fear conditioning chamber • 2nd Injection—30 minutes after coming out of fear conditioning chamber (alternatively 30 min after last shock) • Study duration: 3 days
Rats are handled for 3 consecutive days for ˜2 minutes each day prior to the experiment. […]
Day 1—Conditioning (Acquisition)—animals are placed in the chambers and presented a training session (Context A). […] Freezing behavior (immobility) is recorded in 10-second intervals during the session. Percent baseline freezing behavior is determined in the 3-minute habituation period. […]
The rats were provided 3 minutes habituation. […] Data is recorded in 10 see epochs. […]
Animals are placed in the chambers with a different (lemon) scent and black Plexiglas floor over the grid floor (Context B). Freezing behavior in response to an altered context is recorded for 2 minutes in 10-second intervals. Then the 80 dB tone is presented for 8 minutes and immobility is recorded in 10-second intervals to measure freezing response to the tone cue.

For COCCNC(=O)Nc1ccc2nc(-c3cccs3)c(-c3cccs3)nc2c1 [ADG-205c, 1-(2,3-di(thiophen-2-yl)quinoxalin-6-yl)-3-(2-methoxyethyl)urea], the “Preference for object moved to novel location (time interacting with object relative to all objects)” value [1] was “very little preference for one object”, the “Fear response (freezing) after reconsolidation sessions” value [2] was “observable reduced fear response” and the “Freezing during cue presentation (cued memory test)” value ([3]; listed as EPV018) was “significant reduced freezing”. The “Freezing during cue presentation (cued memory test)” value ([3]; listed as EPV-018) was “statistically significant reduction”.
